Paper PMC6718988, “Bioactivity and Bactericidal Mechanism of Histidine-Rich β-Hairpin Peptide Against Gram-Negative Bacteria” (International Journal of Molecular Sciences, 2019)
In brackets after ≈: the same amount, converted by molar mass. Where a SMILES comes first, the peptide text is derived from it. [ ]: non-standard residue; d: D form.

Legend:
[1] = system: TNF-α production in RAW264.7 cells; assay: Inhibition of endotoxin-induced inflammation (LPS-stimulated TNF-α production); type: cell-based, murine; settings: 32 μM peptide, 100 ng/mL LPS, 18 h, 37 °C, ELISA
Experimental: TNF-α production by the RAW264.7 cells was stimulated with LPS to evaluate the LPS neutralization characteristics of the peptides. Briefly, (1.0–2.0) × 10^5 RAW264.7 cells were plated in 96-well plates and stimulated with LPS (100 ng/mL) for 18 h at 37 °C in the absence or presence of peptides (2–64 μM). The negative and positive controls were untreated cells and cells treated with LPS alone. The supernatant was used to evaluate the endotoxin neutralizing ability of the antimicrobial peptides by analyzing the TNF-α production using […] ELISA (Boster, Wuhan, China).

[2] = system: E. coli ATCC25922; assay: Salt sensitivity assay (MIC in presence of physiological salts); type: cell-based; set-up: unit not given here
Experimental: Bacteria were inoculated into MHB and incubated overnight at 37 °C until the bacteria were in log phase growth. Next, we corrected the bacterial concentration to approximately 1 × 10^5 CFU/mL using MHB. […] After incubation at 37 °C for 24 h, the absorbance was measured at 492 nm using a microplate reader (Tecan GENios F129004, Tecan, Austria). Broth containing microbes and […] were used as positive and negative controls, respectively. The lowest peptide concentration with no increase in absorbance compared to that of the negative control was defined as the MIC. The experiments were independently performed three times. The effects of salt ions on the antibacterial activities of the antimicrobial peptides were evaluated. Different salt ion concentrations were added to BSA peptide dilutions, and the next steps followed the MIC measurement method. […] These tests were independently repeated three times.

[3] = system: Gram-positive bacteria; settings: 24 h
Experimental: (§1) The minimum inhibitory concentration (MIC) was measured using a broth microdilution method to determine the in vitro antimicrobial activity of the peptides. Bacteria were inoculated into MHB and incubated overnight at 37 °C until the bacteria were in log phase growth. Next, we corrected the bacterial concentration to approximately 1 × 10^5 CFU/mL using MHB. The peptides were added to 96-well plates containing 0.01% acetic acid and 0.2% bovine serum albumin at final concentrations ranging from 0.25 to 128 μM. After incubation at 37 °C for 24 h, the absorbance was measured at 492 nm using a microplate reader (Tecan GENios F129004, Tecan, Austria). Broth containing microbes and […] were used as positive and negative controls, respectively. The lowest peptide concentration with no increase in absorbance compared to that of the negative control was defined as the MIC. The experiments were independently performed three times.

[4] = system: Gram-positive and Gram-negative bacteria; settings: 24 h
Experimental: as §1

[5] = RP-HPLC retention time as measure of hydrophobicity; type: physicochemical; settings: analytical Kromasil C18 column 4.6 mm × 250 mm, 5.0 μm, acetonitrile, flow 1.0 mL/min, used as measure of hydrophobicity
Experimental: The hydrophobicities of the peptides in solution were reliably mirrored by their high-performance liquid chromatography (HPLC)retention times. The retention times for peptide HI2, HW2, HV2, HF2, and PG-1 were 11.13, 10.55, 12.20, 18.06 and 12.56 min, respectively, indicating the following hydrophobic order: HF2 > PG-1 > HV2 > HI2 > HW2(Table 1).
The designed peptides were synthesized and purified by GL Biochem (Shanghai, China). Acetonitrile was used on an analytical Kromasil C18 column (4.6 mm × 250 mm, 5.0 μm, LC 3000, Beijing, China), and the purity of the peptides was determined to be greater than 95% via reversed-phase high-performance liquid chromatography (RP-HPLC) with a flow rate of 1.0 mL/min. The experimental molecular weights of the peptides were evaluated via ESI-MS analysis, and these values were very close to the calculated masses. Next, the peptides were dissolved in deionized water at a concentration of 2.56 mM, and the peptide solutions were stored at −20 °C.

[6] = system: E. coli ATCC25922; assay: Swimming motility assay; type: cell-based; settings: E. coli ATCC25922, 0.3% agar, 1–8 μM peptide, 37 °C, 20 h; versus untreated control
Experimental: The cell motility assay was performed on LB medium containing 0.3% agar. The peptides were added to 10 mL of medium at final concentrations of 1–8 μM. After mixing well, the mixtures were poured into 6-well plates and dried for 2 h. Subsequently, an overnight culture of E. coli ATCC 25922 was inoculated in the center of the movement plate. After incubation at 37 °C for 20 h, images were taken using a FluoroChemQ system (Cell biosciences, San Jose, CA, USA). The experiment was independently repeated three times.

[7] = system: S. epidermidis ATCC12228; assay: microbe, parasite or virus in culture; settings: ATCC12228, 24 h
Experimental: as §1

[8] = system: S. aureus ATCC29213; assay: microbe, parasite or virus in culture; settings: ATCC29213, 24 h
Experimental: as §1

[9] = system: E. coli K99; assay: microbe, parasite or virus in culture; settings: E. coli K99; MHB, about 1 × 10^5 CFU/mL, 37 °C, 24 h; three independent experiments
Experimental: as §1

[10] = system: methicillin-resistant S. aureus ATCC43300; assay: microbe, parasite or virus in culture; settings: ATCC43300, 24 h
Experimental: as §1

[11] = system: E. coli K88; assay: microbe, parasite or virus in culture; settings: E. coli K88; MHB, about 1 × 10^5 CFU/mL, 37 °C, 24 h; three independent experiments
Experimental: as §1

[12] = system: P. aeruginosa ATCC27853; assay: microbe, parasite or virus in culture; settings: ATCC27853, 24 h
Experimental: as §1

[13] = system: S. pullorum C7913; assay: microbe, parasite or virus in culture; settings: C7913, 24 h
Experimental: as §1

[14] = system: E. coli ATCC25922; assay: microbe, parasite or virus in culture; settings: ATCC25922, 24 h
Experimental: as §1

[15] = system: E. coli UB1005; assay: microbe, parasite or virus in culture; settings: UB1005, 24 h
Experimental: as §1

In the case of CC(C)[C@H](NC(=O)CNC(=O)[C@H]1CCCN1C(=O)[C@@H](NC(=O)[C@H](Cc1c[nH]cn1)NC(=O)[C@@H](NC(=O)[C@H](Cc1c[nH]cn1)NC(=O)[C@@H](NC(=O)[C@H](CCCNC(=N)N)NC(=O)[C@@H](N)CCCNC(=N)N)C(C)C)C(C)C)C(C)C)C(=O)N[C@@H](Cc1c[nH]cn1)C(=O)N[C@H](C(=O)N[C@@H](Cc1c[nH]cn1)C(=O)N[C@H](C(=O)N[C@@H](CCCNC(=N)N)C(=O)N[C@@H](CCCNC(=N)N)C(N)=O)C(C)C)C(C)C [HV2] (H-RRVHVHV[dP]GVHVHVRR-NH2; N-terminus assumed), the “neutralizing activity against LPS (TNF-α level)” value [1] is reported as about 100%, the “MIC, FeCl3” value ([2]; E. coli ATCC25922, 4 μM FeCl3, unit not given) is reported as 4 and the “MIC, NH4Cl” value ([2]; E. coli ATCC25922, 6 μM NH4Cl, unit not given) is reported as 4. For the same compound, the “MIC, ZnCl2” value ([2]; E. coli ATCC25922, 8 μM ZnCl2, unit not given) was 1, the “MIC, MgCl2” value ([2]; E. coli ATCC25922, 1 mM MgCl2, unit not given) was 8 and the “MIC, KCl” value ([2]; E. coli ATCC25922, 4.5 mM KCl, unit not given) was 4. The “MIC, NaCl” value ([2]; E. coli ATCC25922, 150 mM NaCl, unit not given) was 4, the “MIC, Control” value ([2]; E. coli ATCC25922, absence of physiological salts, no unit printed in Table 3 (Table 2 MIC in μM)) was 8 and the “MBC (GM), geometric mean of MICs, Gram (+)” value [3] was 256 µM. For the same compound, the “MBC (GM), geometric mean of MICs, Gram (+,−)” value [4] was 23.52 µM, the “Retention Time” value [5] was 12.20 min and the “swimming motility (diameter of swimming bacteria)” value [6] was “significantly reduced the diameter of the swimming bacteria”. The MIC [7] was over 128 µM, the MIC [8] was over 128 µM and the MIC [9] was 8 µM (≈ 15.5 µg/mL). For the same compound, the MIC [10] was over 128 µM, the MIC [11] was 4 µM (≈ 7.76 µg/mL) and the MIC [12] was 8 µM (≈ 15.5 µg/mL). The MIC [13] was 8 µM (≈ 15.5 µg/mL), the MIC [14] was 8 µM (≈ 15.5 µg/mL) and the MIC [15] was 8 µM (≈ 15.5 µg/mL).
